# pIC50, pKd: −log10 of the molar value.
# Tests used:
# Homo sapiens [1] = species: Homo sapiens; assay: Tested for the inhibition of [125 I] -L 692,884 binding to purified GPIIb/IIIa coated onto yttrium silicate Scintillation proximity assay fluomicrospheres
# Homo sapiens [2] = species: Homo sapiens; assay: The compound was tested for the inhibition of platelet aggregation; type: functional
# Homo sapiens [3] = species: Homo sapiens; assay: Measured by competition with fluorescent ligand L-762,745 for binding to resting human gel filtered platelets using flow cytometry; type: functional
# Canis familiaris [4] = assay: Tested ex vivo inhibition of platelet aggregation after oral dose of 200 ug/kg through out 8 hr in dog; type: functional; conditions: Canis lupus familiaris
# Canis familiaris [5] = assay: Tested ex vivo inhibition of platelet aggregation after oral dose of 200 ug/kg through out 24 hr in dog; type: functional; conditions: Canis lupus familiaris
Structure (SMILES),ED50 (Homo sapiens [1]) [nM],pIC50 (Homo sapiens [2]),pKd (Homo sapiens [3]),inhibition in vivo at 0.2 mg/kg (Canis familiaris [4]) [%],inhibition in vivo at 0.2 mg/kg (Canis familiaris [5]) [%]
O=C(NCc1ccccc1)N[C@@H](CNC(=O)c1cc2cc(CCC3CCNCC3)sc2s1)C(=O)O,1.9,7.12,7.03,–,–
CCCCS(=O)(=O)N[C@@H](CNC(=O)c1cc2cc(CCC3CCNCC3)sc2s1)C(=O)O,0.12,7.49,8.25,–,–
O=C(NC[C@H](NS(=O)(=O)c1ccccc1)C(=O)O)c1cc2sc(CCC3CCNCC3)cc2s1,0.08,8.10,9.82,–,–
O=C(NCc1ccccc1)N[C@@H](CNC(=O)c1cc2sc(CCC3CCNCC3)cc2s1)C(=O)O,2.6,7.44,7.48,–,–
O=C(NC[C@H](NS(=O)(=O)c1cccnc1)C(=O)O)c1cc2cc(CCCC3CCNCC3)sc2s1,–,7.68,–,–,–
O=C(NC[C@H](NS(=O)(=O)c1ccccc1)C(=O)O)c1cc2cc(CCC3CCNCC3)sc2s1,0.03,8.10,10.64,> 80,50
O=C(NC[C@H](NS(=O)(=O)c1cccnc1)C(=O)O)c1cc2cc(CC3CCNCC3)sc2s1,–,7.64,–,–,–
O=C(NC[C@H](NS(=O)(=O)c1cccnc1)C(=O)O)c1cc2cc(CCC3CCNCC3)sc2s1,–,8.10,–,–,–
O=C(O)CCNC(=O)c1cc2sc(CCC3CCNCC3)cc2s1,–,6.30,~6.22,–,–
CCCCS(=O)(=O)N[C@@H](CNC(=O)c1cc2sc(CCC3CCNCC3)cc2s1)C(=O)O,0.21,8.00,8.52,–,–
O=C(NC[C@H](NS(=O)(=O)c1ccc(Cl)cc1)C(=O)O)c1cc2cc(CCC3CCNCC3)sc2s1,0.09,7.96,10.59,–,–
O=C(O)CCNC(=O)c1cc2cc(CCC3CCNCC3)sc2s1,48,6.39,–,–,–
O=C(NC[C@H](NS(=O)(=O)c1cccs1)C(=O)O)c1cc2sc(CCC3CCNCC3)cc2s1,0.04,7.89,10.04,–,–
O=C(NC[C@H](NS(=O)(=O)c1cccs1)C(=O)O)c1cc2cc(CCC3CCNCC3)sc2s1,0.04,8.05,9.82,–,–

# Reference: ChEMBL document CHEMBL1151496, “Nonpeptide GPIIB/IIIA inhibitors. 16. Thieno[2,3-b]thiophene -sulfonamides are potent inhibitors of platelet aggregation” (Bioorg Med Chem Lett, 1997)
